# Results from patent US11632953B2, “Method for controlling hematophagous or sap-feeding arthropods” (Board of Supervisors of Louisiana State University and …, priority 2016, dated 2023).
# Where two headings read alike, the source gives them in different places.
# Key:
# An. gambiae = test: topical toxicity bioassay in adult female An. gambiae; assay type: in vivo, Anopheles gambiae; conditions: for ED50 (95% confidence limits), Akron Strain / ED50 (95% confidence limits), G3 Strain: topical, synergists 500 ng/insect four hours prior
# Experimental: Topical toxicity bioassays were performed on non-blood-fed adult female mosquitoes. The mosquitoes were chilled on ice for 1-3 minutes, during which 200 nL of compound (dissolved in 95% ethanol) was applied onto the abdomen of each insect with a handheld Hamilton® micro-applicator. […] […] The three resulting ED50 values were averaged. An ethanol-only treatment was included in each experiment as a negative control. Treated mosquitoes were transferred to small cages with access to 10% sucrose and held under rearing conditions for 24 h. Mortality was recorded at 24 h.
# Ae. aegypti = test: topical toxicity bioassay in adult female Ae. aegypti; assay type: in vivo, Aedes aegypti; conditions: 24 h
# Experimental: Topical toxicity bioassays in adult female Ae. aegypti (LVP and PR strains) were performed. […] A solvent-only treatment was included in each experiment as a negative control. Treated mosquitoes were transferred to small cages with access to 10% sucrose and held under rearing conditions for 24 h. The efficacy of a dose was measured as the percentage of treated mosquitoes in a cage that were flightless or dead at 24 h. Four to eight replicates of 10 mosquitoes were performed per dose. The ED50 values were determined using a non-linear curve fit analysis (log [inhibitor] vs. response variable-slope) in Prism 6 (Graphpad Software).
# Six replicate experiments of 10 mosquitoes each were performed.
# Drosophila melanogaster = test: whole plant or invertebrate; conditions: for mortality in CAFE assay: 200 μM VU041, 700 μM VU937; for reduction of total volume of sucrose solution ingested: 100 μM fluphenazine, 200 μM VU041
# Experimental: A capillary feeding assay (CAFE) was used to quantify the volume of sucrose solution consumed over a period of time; it was performed essentially as described in W. W. Ja, G. B. Carvalho, E. M. Mak, N. N. de la Rosa, A. Y. Fang, J. C. Liong, T. Brummel, S. Benzer, Prandiology of Drosophila and the CAFE assay. Proceedings of the National Academy of Sciences of the United States of America 104, 8253-8256 (2007); published online EpubMay 15 (10.1073/pnas.0702726104). […] One adult fly was placed into a 2 mL glass vial with a screw lid that was pierced with a glass microcapillary tube having a truncated 200-0 pipette tip. The microcapillary tubes contained 5% (wt/vol) sucrose solution with a 5 μl mineral oil overlay to minimize evaporation. […] Concentrations of 100 μM dopamine and 100 μM fluphenazine were used to determine the influence of those agents on fly feeding. […] All dead flies were excluded from all time points of the study regardless of the time of death. Mean (n>25) values are shown in all figure panels, depicting total consumption.
# Times spent feeding in Kir1 and GFP genetic knockdown studies were compared to control values for each day using one-way ANOVA with a Dunns multiple comparisons post-test. Statistical significance for all studies was P<0.05.
# AnKir1 = AnKir1 (Anopheles gambiae, UniProt A0A075M2J8); test: thallium (Tl+) flux assay; assay type: cell-based
# AnKir1, sequence (A0A075M2J8 1-555): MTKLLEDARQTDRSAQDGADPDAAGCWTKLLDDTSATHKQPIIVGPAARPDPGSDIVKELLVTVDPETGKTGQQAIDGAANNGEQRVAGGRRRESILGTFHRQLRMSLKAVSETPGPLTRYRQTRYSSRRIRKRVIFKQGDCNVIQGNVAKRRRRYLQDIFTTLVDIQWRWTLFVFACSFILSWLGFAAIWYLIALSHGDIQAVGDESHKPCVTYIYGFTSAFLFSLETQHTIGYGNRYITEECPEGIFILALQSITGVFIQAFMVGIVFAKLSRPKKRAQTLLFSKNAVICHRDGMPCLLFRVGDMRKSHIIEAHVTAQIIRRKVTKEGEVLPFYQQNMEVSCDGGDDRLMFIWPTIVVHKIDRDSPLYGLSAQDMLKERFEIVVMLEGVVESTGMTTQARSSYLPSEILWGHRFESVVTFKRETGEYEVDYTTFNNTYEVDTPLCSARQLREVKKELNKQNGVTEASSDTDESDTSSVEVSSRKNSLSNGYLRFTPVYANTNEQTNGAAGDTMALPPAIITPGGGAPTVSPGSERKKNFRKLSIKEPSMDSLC
# Experimental: The thallium flux assay is an in vitro method of measuring conductance through a potassium ion channel. Potassium channels are also permeable to thallium ions. The modulation of a K^+ channel will thus increase or decrease thallium ion flow through the channel and thus, alter the observed fluorescence of a thallium-specific indicator dye.
# After 1 hr incubation at room temperature, the dye-loading solution was washed from the plates and replaced with 20 μL/well of assay buffer. The plates were transferred to a Hamamatsu Functional Drug Screening System 6000 (FDSS6000; Hamamatsu, Tokyo, Japan), where 20 μL/well of each of the test compounds in assay buffer was added and allowed to incubate with the cells for 20 min. After incubation, a baseline recording was collected at 1 Hz for 10 s (excitation 470±20 nm, emission 540±30 nm); a thallium stimulus buffer was then added (10 μL/well), and data were then collected for an additional 4 min. […] To ensure the small-molecule vehicle DMSO had no direct effect on AnKir1-dependent Tl^+ flux, the assay's tolerance to different doses of DMSO was evaluated. The robustness and reproducibility of the assay was determined by comparing Tl^+ flux through tetracycline-induced and tetracycline-free cells. The Z′ value was calculated as:
# Z′=1−(3SDp+3SDn)/|meanp+meann| where SD is standard deviation, and p and n are control and uninduced flux values, respectively. To compare the effect of DMSO on AnKir1-mediated Tl^+ flux, a one-way ANOVA was performed with a Tukey's multiple comparison test. Prism software (GraphPad Software) was used to generate CRC from Tl^+ flux. Half-inhibition concentration (IC50) values were calculated from fits using a four parameter logistic equation.
# Test compounds were transferred to daughter, 384-well polypropylene plates (Greiner Bio-One, Monroe, N.C.) with an Echo555 liquid handler (Labcyte, Sunnyvale, Calif.), and then diluted into assay buffer to generate a 2× stock in 0.6% DMSO (0.3% final). […] Concentration-response curves (CRCs) were generated by screening compounds at 3-fold dilution series (1 nM-30 μM).
# Tl^+ flux data were analyzed using Excel (Microsoft Corp, Redmond, Wash.) with XLfit add-in (IDBS, Guildford, Surrey, UK), OriginPro (Origin Lab, Northampton, Mass.), and GraphPad Prism (GraphPad Software, San Diego, Calif., USA) software. Raw data were opened in Excel and each data point in a given trace was divided by the first data point from that trace (static ratio) followed by subtraction of data points from control traces generated with vehicle controls. The slope of the fluorescence increase beginning 5 s after Tl^+ addition and ending 15 s after Tl^+ addition was calculated.
# To perform Tl+ flux assays, stably transfected T-Rex-HEK-293 cells expressing AnKir1 channels were cultured overnight in 384-well plates (20,000 cells/20 μL/well), black-walled, clear-bottomed BD Pure Coat amine-coated plates (BD, Bedford, Mass.) with a plating media containing DMEM, 10% dialyzed FBS and 1 μg/mL tetracycline. […] Following 1 hr incubation at room temperature, the dye-loading solution was washed from the plates and replaced with 20 μL/well of assay buffer.
smiles,measurement,setting,value
"O=C(Cn1nc(C(F)(F)F)c2c1CCCC2)N1CCCc2ccccc21 [VU041, 1-(3,4-dihydroquinolin-1(2H)-yl)-2-(3-(trifluoromethyl)-4,5,6,7-tetrahydro-1H-indazol-1-yl)ethan-1-one]",enhancement of toxicity by inhibition of CYP450s in the AKRON strain over the G3 strain,An. gambiae; Akron strain,3 fold
same,enhancement of efficacy by PBO pretreatment,An. gambiae; G3 strain,~3 fold
same,enhancement of toxicity by DEF pre-treatment,An. gambiae; G3 strain,did not enhance toxicity
same,"ED50 (95% confidence limits), Akron Strain","An. gambiae; 24 h, Akron strain",2.8 (2.1-4.1) A μg/mg
same,"ED50 (95% confidence limits), G3 Strain","An. gambiae; 24 h, G3 strain",1.8 (0.9-3.1) A μg/mg
same,approximate ED50,"Ae. aegypti; topical, LVP strain",~3.24 μg/mg mosquito
same,mortality in CAFE assay,Drosophila melanogaster,approximately 30%
same,reduction of total volume of sucrose solution ingested,Drosophila melanogaster; 1 day PE,2.6 fold
same,reduction of total volume of sucrose solution ingested,Drosophila melanogaster; 2 days PE,2.7 fold
same,reduction of total volume of sucrose solution ingested,Drosophila melanogaster; 3 days PE,2.9 fold
same,reduction of total volume of sucrose solution ingested,Drosophila melanogaster; 4 days PE,3.2 fold
same,EC50,"Drosophila melanogaster; Drosophila melanogaster, 96 h, read-out: EC50 of reduction of sucrose consumption",68000 nM
same,maximal reduction of volume of sucrose consumption,Drosophila melanogaster; concentration-dependent,up to 3.2 fold
same,IC50,"AnKir1; SAR libraries, read-out: AnKir1 IC50",2.3 µM
same,IC50,"AnKir1; means (n = 3), selectivity panel, read-out: IC50 μM (95% Cl)",2.5 µM
O=C(Cn1nc(C(F)(F)F)c2c1CCCC2)NC1CCC1 [VU937],topical toxicity,"An. gambiae; adult females, 24 h",not toxic
same,"ED50 (95% confidence limits), Akron Strain","An. gambiae; 24 h, Akron strain",>10 µg/mg
same,"ED50 (95% confidence limits), G3 Strain","An. gambiae; 24 h, G3 strain",>10 µg/mg
same,topical toxicity,Ae. aegypti; adult females,not toxic
same,mortality in CAFE assay,Drosophila melanogaster,less than 10%
same,AnKir1 IC50 (μM),"AnKir1; SAR libraries, listed as 18",inactive
same,AnKir1 IC50 (μM),"AnKir1; SAR libraries, listed as Compound 18",not tolerated
